Test results published in US12661410B2, “Compounds for targeted degradation of RET” (C4 Therapeutics, Inc., priority 2020, dated 2026).
Substitutions are numbered along the chain they refer to. Read-outs that look alike come from different tables or passages of the source.

Tests used:
RET (658-1114) = target: T1, RET (658-1114) (Homo sapiens, UniProt P07949); assay: HiBiT-Degradation, RET wild-type degradation assay (Nano-Glo HiBiT Lytic), 293T.144 cells; type: cell-based; conditions: for Emax / DC50: 6.0 hours; for Emax: read-out: 293T.144 RET (658-1114) 6.0 hours (Emax); for DC50: read-out: 293T.144 RET (658-1114) 6.0 hours (DC50)
T1 construct: 658-1114; expressed in transfected cells; host or cells: 293T.144 (293T cells, generated in-house)
T1 sequence (P07949 658-1114): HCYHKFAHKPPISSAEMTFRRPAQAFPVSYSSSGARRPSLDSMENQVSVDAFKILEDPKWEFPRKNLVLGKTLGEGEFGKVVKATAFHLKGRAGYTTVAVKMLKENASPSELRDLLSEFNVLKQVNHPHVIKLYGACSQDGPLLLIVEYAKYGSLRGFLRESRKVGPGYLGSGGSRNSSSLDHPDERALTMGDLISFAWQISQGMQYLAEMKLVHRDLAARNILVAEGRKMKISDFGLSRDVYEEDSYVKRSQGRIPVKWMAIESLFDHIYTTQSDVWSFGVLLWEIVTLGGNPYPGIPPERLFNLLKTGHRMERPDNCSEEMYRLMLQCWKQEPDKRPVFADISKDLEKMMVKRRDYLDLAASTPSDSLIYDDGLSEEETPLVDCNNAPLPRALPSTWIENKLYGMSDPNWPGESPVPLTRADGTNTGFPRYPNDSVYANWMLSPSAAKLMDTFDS
Method in brief: (§1)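 HEK293T lines stably expressing HiBiT-tagged RET kinase domain (WT: 293T.144; G810R: 293T.165) were treated with degraders for 6 h in duplicate, 11-point half-log series from 10 μM top dose. Lysis with Nano-Glo HiBiT Lytic reagent, luminescence read; DC50 and Emax (% remaining protein) derived from dose-response curves.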

RET(KD: 658-1114 G810R) = target: T2, RET(KD: 658-1114 G810R) (Homo sapiens, UniProt P07949, G810R); assay: HiBiT-Degradation, RET G810R degradation assay (Nano-Glo HiBiT Lytic), 293T.165 cells; type: cell-based; conditions: for Emax / DC50: 6.0 hours; for Emax: % remaining protein, read-out: 293T.165 RET(KD: 658-1114 G810R) 6.0 hours (Emax); for DC50: read-out: 293T.165 RET(KD: 658-1114 G810R) 6.0 hours (DC50)
T2 construct: 658-1114; expressed in transfected cells; host or cells: 293T.165 (293T cells, generated in-house)
T2 sequence (P07949 658-1114 G810R): T1 sequence (P07949 658-1114) with G153R
Method in brief: as §1

[1] = half-maximal degradation concentration

| Compound | 293T.144 RET (658-1114) 6.0 hours (IP) [nM] (RET (658-1114)) | Emax (RET (658-1114); % remaining protein) | DC50 (RET (658-1114); [1]) | 293T.165 RET(KD: 658-1114 G810R) 6.0 hours (IP) [nM] (RET(KD: 658-1114 G810R)) | Emax (RET(KD: 658-1114 G810R)) | DC50 (RET(KD: 658-1114 G810R); [1]) | 293T.144 RET (658-1114) 6.0 hours (IP) [nM] (RET (658-1114); HiBiT-Degradation) | DC50 (RET (658-1114); HiBiT-Degradation) | Emax (RET (658-1114); HiBiT-Degradation) | 293T.165 RET(KD: 658-1114 G810R) 6.0 hours (Emax) (RET(KD: 658-1114 G810R); HiBiT-Degradation) | 293T.165 RET(KD: 658-1114 G810R) 6.0 hours (IP) [nM] (RET(KD: 658-1114 G810R); HiBiT-Degradation) | DC50 (RET(KD: 658-1114 G810R); HiBiT-Degradation) |
| --- | --- | --- | --- | --- | --- | --- | --- | --- | --- | --- | --- | --- |
| CCC1(C(=O)NC(C)C)CCN(c2ccc(-c3nc(-c4cnn(C5CN(C(=O)CC6(O)CCN(c7ccc(NC8CCC(=O)NC8=O)cc7F)CC6)C5)c4)cn4ncc(C#N)c34)cn2)CC1 (stereo not shown) [Compound 184, 1-[5-[3-cyano-6-[1-[1-[2-[1-[4-[(2,6-dioxo-3-piperidyl)amino]-2-fluoro-phenyl]-4-hydroxy-4-piperidyl]acetyl]azetidin-3-yl]pyrazol-4-yl]pyrazolo[1,5-a]pyrazin-4-yl]-2-pyridyl]-4-ethyl-N-isopropyl-piperidine-4-carboxamide] | ++++ (<50 nM = ++++) | < 30% | < 50 nM | ++++ (<50 nM = ++++) | < 30% | < 50 nM | – | – | – | – | – | – |
| CCC1(C(=O)NC(C)C)CCN(c2ccc(-c3cc(-c4cnn(C5CCN(C(=O)CN6CCC(c7ccc8c(N9CCC(=O)NC9=O)nn(C)c8c7)CC6)CC5)c4)cn4ncc(C#N)c34)cn2)CC1 [Compound 63, 1-[5-[3-cyano-6-[1-[1-[2-[4-[3-(2,4-dioxohexahydropyrimidin-1-yl)-1-methyl-indazol-6-yl]-1-piperidyl]acetyl]-4-piperidyl]pyrazol-4-yl]pyrazolo[1,5-a]pyridin-4-yl]-2-pyridyl]-4-ethyl-N-isopropyl-piperidine-4-carboxamide] | – | – | – | – | < 30% | < 100 nM | ++++ (< 50 nM = ++++) | < 50 nM | < 30% | ++++ (< 30% = ++++) | ++++ (< 50 nM = ++++) | < 100 nM |
| N#Cc1cnn2cc(-c3ccc(N4CCN(C(=O)CN5CCC(c6ccc(NC7CCC(=O)NC7=O)cc6F)CC5)CC4)cc3)nc(-c3ccc(N4CC5CC(C4)N5Cc4ccccc4)nc3)c12 (stereo not shown) [Compound 54, 4-[6-(6-benzyl-3,6-diazabicyclo[3.1.1]heptan-3-yl)-3-pyridyl]-6-[4-[4-[2-[4-[4-[(2,6-dioxo-3-piperidyl)amino]-2-fluoro-phenyl]-1-piperidyl]acetyl]piperazin-1-yl]phenyl]pyrazolo[1,5-a]pyrazine-3-carbonitrile] | – | – | – | – | < 30% | < 100 nM | ++++ (< 50 nM = ++++) | < 50 nM | < 30% | ++++ (< 30% = ++++) | ++++ (< 50 nM = ++++) | < 100 nM |
| CC(C)NC(=O)C1(C)CCN(c2ccc(-c3cc(-c4ccc(N5CCN(C(=O)CN6CCC(c7ccc(OC8CCC(=O)NC8=O)cc7)CC6)CC5)cc4)cn4ncc(C#N)c34)cn2)CC1 (stereo not shown) [Compound 48, 1-[5-[3-cyano-6-[4-[4-[2-[4-[4-[(2,6-dioxo-3-piperidyl)oxy]phenyl]-1-piperidyl]acetyl]piperazin-1-yl]phenyl]pyrazolo[1,5-a]pyridin-4-yl]-2-pyridyl]-N-isopropyl-4-methyl-piperidine-4-carboxamide] | – | – | – | – | < 30% | < 100 nM | ++++ (< 50 nM = ++++) | < 50 nM | < 30% | ++++ (< 30% = ++++) | ++++ (< 50 nM = ++++) | < 100 nM |
| CCC1(NC(=O)C(C)C)CCN(c2ccc(-c3nc(-c4cnn([C@H]5CC[C@@H](N6CCN(c7ccc8c(N9CCC(=O)NC9=O)nn(C)c8c7F)CC6)CC5)c4)cn4ncc(C#N)c34)cn2)CC1 (single isomer, unassigned) [Compound 125, N-(1-(5-(3-Cyano-6-(1-((1s, 4s)-4-(4-(3-(2,4-dioxotetrahydropyrimidin-1(2H)-yl)-7-fluoro-1-methyl-1H-indazol-6-yl)piperazin-1-yl)cyclohexyl)-1H-pyrazol-4-yl)pyrazolo[1,5-a]pyrazin-4-yl)pyridin-2-yl)-4-ethylpiperidin-4-yl)isobutyramide] | ++++ (<50 nM = ++++) | < 30% | < 50 nM | ++++ (<50 nM = ++++) | < 30% | < 50 nM | – | – | – | – | – | – |
| CC(C)NC(=O)C1(C)CCN(c2ccc(-c3cc(-c4cnn([C@H]5CC[C@H](CCN6CCC(c7ccc(NC8CCC(=O)NC8=O)cc7F)CC6)CC5)c4)cn4ncc(C#N)c34)cn2)CC1 (stereo partly shown) [Compound 34, 1-(5-(3-Cyano-6-(1-((1r,4r)-4-(2-(4-(4-((2,6-dioxopiperidin-3-yl)amino)-2-fluorophenyl)piperidin-1-yl)ethyl)cyclohexyl)-1H-pyrazol-4-yl)pyrazolo[1,5-a]pyridin-4-yl)pyridin-2-yl)-N-isopropyl-4-methylpiperidine-4-carboxamide] | – | – | – | – | < 30% | < 50 nM | ++++ (< 50 nM = ++++) | < 50 nM | < 30% | ++++ (< 30% = ++++) | ++++ (< 50 nM = ++++) | < 50 nM |
| COc1ccc(CN2C[C@H]3COC[C@@H](C2)N3c2ccc(-c3nc(-c4cnn([C@H]5CC[C@H](N6CCN(c7ccc(NC8CCC(=O)NC8=O)cc7F)CC6)CC5)c4)cn4ncc(C#N)c34)cn2)cn1 (stereo partly drawn) [Compound 160, 6-[1-[4-[4-[4-[(2,6-dioxo-3-piperidyl)amino]-2-fluoro-phenyl]piperazin-1-yl]cyclohexyl]pyrazol-4-yl]-4-[6-[(1R,5S)-7-[(6-methoxy-3-pyridyl)methyl]-3-oxa-7,9-diazabicyclo[3.3.1]nonan-9-yl]-3-pyridyl]pyrazolo[1,5-a]pyrazine-3-carbonitrile] | ++++ (<50 nM = ++++) | < 30% | < 50 nM | ++++ (<50 nM = ++++) | < 30% | < 50 nM | – | – | – | – | – | – |
| CCC1(C(=O)NC(C)C)CCN(c2ccc(-c3nc(-c4cnn(C5CCN(C(=O)CN6CCC(c7ccc(NC8CCC(=O)NC8=O)cc7)CC6)CC5)c4)cn4ncc(C#N)c34)cn2)CC1 (stereo not shown) [Compound 31, 1-(5-(3-Cyano-6-(1-(1-(2-(4-(4-((2,6-dioxopiperidin-3-yl)amino)phenyl)piperidin-1-yl)acetyl)piperidin-4-yl)-1H-pyrazol-4-yl)pyrazolo[1,5-a]pyrazin-4-yl)pyridin-2-yl)-4-ethyl-N-isopropylpiperidine-4-carboxamide] | – | – | – | – | < 30% | < 50 nM | ++++ (< 50 nM = ++++) | < 50 nM | < 30% | ++++ (< 30% = ++++) | ++++ (< 50 nM = ++++) | < 50 nM |
| CCC1(C(=O)Nc2ccccc2)CCN(c2ccc(-c3nc(-c4cnn(C5CCN(C(=O)CC6(O)CCN(c7ccc(NC8CCC(=O)NC8=O)cc7F)CC6)CC5)c4)cn4ncc(C#N)c34)cn2)CC1 (stereo not shown) [Compound 99, 1-[5-[3-cyano-6-[1-[1-[2-[1-[4-[(2,6-dioxo-3-piperidyl)amino]-2-fluoro-phenyl]-4-hydroxy-4-piperidyl]acetyl]-4-piperidyl]pyrazol-4-yl]pyrazolo[1,5-a]pyrazin-4-yl]-2-pyridyl]-4-ethyl-N-phenyl-piperidine-4-carboxamide] | ++++ (<50 nM = ++++) | < 30% | < 50 nM | ++++ (<50 nM = ++++) | < 30% | < 50 nM | – | – | – | – | – | – |
